Patent US10696615B2, “Prenylated hydroxystilbenes” (The University of Sydney, priority 2011, dated 2020)

Columns and labels:
Assay type in all cases: cell-based, human
[1] = system: HCT-15; assay: NCI in vitro cancer screen, Colon Cancer; conditions: HCT-15
[2] = system: CCRF-CEM; assay: NCI in vitro cancer screen, Leukemia
[3] = system: SK-MEL-5; assay: NCI in vitro cancer screen, Melanoma; conditions: SK-MEL-5
[4] = system: ADR-RES (NCI/ADR-RES); assay: NCI in vitro cancer screen, Ovarian Cancer
[5] = system: DU-145; assay: NCI in vitro cancer screen, Prostate Cancer; conditions: DU-145
[6] = system: SNB-19; assay: NCI in vitro cancer screen, CNS Cancer; conditions: SNB-19
[7] = system: LOX IMVI; assay: NCI in vitro cancer screen, Melanoma
[8] = system: NCI-H460; assay: NCI in vitro cancer screen, Non-Small Cell Lung Cancer; conditions: NCI-H460
[9] = system: HCT-116; assay: NCI in vitro cancer screen, Colon Cancer; conditions: HCT-116
[10] = system: OVCAR-8; assay: NCI in vitro cancer screen, Ovarian Cancer; conditions: OVCAR-8
[11] = system: M14; assay: NCI in vitro cancer screen, Melanoma; conditions: M14
[12] = system: KM12; assay: NCI in vitro cancer screen, Colon Cancer; conditions: KM12
[13] = system: ACHN; assay: NCI in vitro cancer screen, Renal Cancer
[14] = system: NCI-H23; assay: NCI in vitro cancer screen, Non-Small Cell Lung Cancer; conditions: NCI-H23
[15] = system: SK-MEL-28; assay: NCI in vitro cancer screen, Melanoma; conditions: SK-MEL-28
[16] = system: MDA-MB-231 (MDA-MB-231/ATCC); assay: NCI in vitro cancer screen, Breast Cancer; conditions: MDA-MB-231
[17] = system: U251; assay: NCI in vitro cancer screen, CNS Cancer; conditions: U251
[18] = system: HOP-92; assay: NCI in vitro cancer screen, Non-Small Cell Lung Cancer; conditions: HOP-92
[19] = system: CAKI-1; assay: NCI in vitro cancer screen, Renal Cancer; conditions: CAKI-1
[20] = system: UACC-62; assay: NCI in vitro cancer screen, Melanoma; conditions: UACC-62
[21] = system: MALME-3M; assay: NCI in vitro cancer screen, Melanoma
[22] = system: HCC-2998; assay: NCI in vitro cancer screen, Colon Cancer; conditions: HCC-2998
[23] = system: SK-OV-3; assay: NCI in vitro cancer screen, Ovarian Cancer; conditions: SK-OV-3
[24] = system: SK-MEL-2; assay: NCI in vitro cancer screen, Melanoma; conditions: SK-MEL-2
[25] = system: PC-3; assay: NCI in vitro cancer screen, Prostate Cancer; conditions: PC-3
[26] = system: NCI-H522; assay: NCI in vitro cancer screen, Non-Small Cell Lung Cancer; conditions: NCI-H522
[27] = system: COLO 205; assay: NCI in vitro cancer screen, Colon Cancer; conditions: COLO 205
[28] = system: OVCAR-5; assay: NCI in vitro cancer screen, Ovarian Cancer; conditions: OVCAR-5
[29] = system: MOLT-4; assay: NCI in vitro cancer screen, Leukemia; conditions: MOLT-4
[30] = system: OVCAR-4; assay: NCI in vitro cancer screen, Ovarian Cancer; conditions: OVCAR-4
[31] = Homo sapiens, read-out: LC50 (the source's name)

## COc1cc(/C=C/c2cc(O)cc(OCC=C(C)C)c2)ccc1O [USYDS2, (E)-3-(3-methyl-2-butenyloxy)-4′,5-dihydroxy-3′-methoxystilbene]
[1]
  TGI: 17.8 µM
[1]; Homo sapiens
  GI50: 760 nM
[1]; [31]
  CC50: 97.3 µM
[2]
  TGI: >100 µM
[2]; Homo sapiens
  GI50: 5.06 µM
[2]; [31]
  CC50: > 100 µM
[3]; Homo sapiens
  GI50: 1580 nM
[3]; [31]
  CC50: 34.3 µM
[3]
  TGI: 11.5 µM
[4]; ADR-RES
  TGI: 4.95 µM
[4]; Homo sapiens, NCI/ADR-RES
  GI50: 400 nM
[4]; Homo sapiens, NCI/ADR-RES, read-out: LC50 (the source's name)
  CC50: > 100 µM
[5]
  TGI: 12.5 µM
[5]; Homo sapiens
  GI50: 3.05 µM
[5]; [31]
  CC50: 37.8 µM
[6]; Homo sapiens
  GI50: 5.02 µM
[6]; [31]
  CC50: 53.6 µM
[6]
  TGI: 20.4 µM
[7]
  TGI: 19.4 µM
[7]; Homo sapiens
  GI50: 1560 nM
[7]; [31]
  CC50: > 100 µM
[8]; Homo sapiens
  GI50: 2470 nM
[8]; [31]
  CC50: 58.7 µM
[8]
  TGI: 10.9 µM
[9]
  TGI: 11.9 µM
[9]; Homo sapiens
  GI50: 2090 nM
  LC50 (concentration killing 50% of cells): 40 µM
[10]; Homo sapiens
  GI50: 2800 nM
[10]; [31]
  CC50: 44.6 µM
[10]
  TGI: 14.8 µM
[11]; Homo sapiens
  GI50: 530 nM
[11]; [31]
  CC50: 49.4 µM
[11]
  TGI: 15.4 µM
[12]; Homo sapiens
  GI50: 2090 nM
[12]; [31]
  CC50: 45 µM
[12]
  TGI: 11.7 µM
[13]
  TGI: 17.5 µM
[13]; Homo sapiens
  GI50: 3.76 µM
[13]; [31]
  CC50: 52.1 µM
[14]; Homo sapiens
  GI50: 2890 nM
  LC50: > 100 µM
[14]
  TGI: 23.6 µM
[15]; Homo sapiens
  GI50: 5.04 µM
  LC50: 46.7 µM
[15]
  TGI: 19.4 µM
[16]; Homo sapiens
  GI50: 250 nM
[16]; [31]
  CC50: 15.7 µM
[16]
  TGI: 2.10 µM
[17]; Homo sapiens, U-251
  GI50: 2960 nM
[17]; Homo sapiens, U-251, read-out: LC50 (the source's name)
  CC50: 41 µM
[17]
  TGI: 14.7 µM
[18]
  TGI: 21.1 µM
[18]; Homo sapiens
  GI50: 3.98 µM
[18]; [31]
  CC50: 60.1 µM
[19]
  TGI: >100 µM
[19]; Homo sapiens
  GI50: 6.13 µM
[19]; [31]
  CC50: > 100 µM
[20]; Homo sapiens
  GI50: 3.73 µM
[20]; [31]
  CC50: 44.6 µM
[20]
  TGI: 15.9 µM
[21]; Homo sapiens, Malme-3M
  GI50: 1880 nM
[21]; Homo sapiens, Malme-3M, read-out: LC50 (the source's name)
  CC50: 94.9 µM
[21]; MALME-3M
  TGI: 26.2 µM
[22]
  TGI: 17.3 µM
[22]; Homo sapiens
  GI50: 4.61 µM
[22]; [31]
  CC50: 46.4 µM
[23]; Homo sapiens
  GI50: 3.69 µM
[23]; [31]
  CC50: 38.9 µM
[23]
  TGI: 14.9 µM
[24]; Homo sapiens
  GI50: 1250 nM
  LC50: 41.6 µM
[24]
  TGI: 9.59 µM
[25]; Homo sapiens
  GI50: 3.84 µM
[25]; [31]
  CC50: 65.8 µM
[25]
  TGI: 18.7 µM
[26]; Homo sapiens
  GI50: 1140 nM
[26]; [31]
  CC50: 14.7 µM
[26]
  TGI: 3.57 µM
[27]
  TGI: 31.7 µM
[27]; Homo sapiens
  GI50: 17.3 µM
[27]; [31]
  CC50: 57.9 µM
[28]; Homo sapiens
  GI50: 10.1 µM
[28]; [31]
  CC50: 60.9 µM
[28]
  TGI: 24.8 µM
[29]; Homo sapiens
  GI50: 4.16 µM
[29]; [31]
  CC50: > 100 µM
[29]
  TGI: 28.3 µM
[30]; Homo sapiens
  GI50: 5.34 µM
[30]; [31]
  CC50: > 100 µM
[30]
  TGI: 28.0 µM
